In patent US20100035756A1, “TRIAZOLOPHYRIDINE DERIVATIVES AS HERBICIDES” (SYNGENTA LIMITED, priority 2006, published 2010):

What was measured:
Assay type in all cases: in vivo
[1] = test system: Monocotyledonous and dicotyledonous test plants; assay: Herbicidal action prior to emergence of the plants (pre-emergence action), Example B1; conditions: preemergence application, 250 g/ha, evaluated after 4 weeks, 100%=total damage, 0%=no damage
Method in brief: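 Monocot and dicot species were sown in standard soil and sprayed pre-emergence, right after sowing, at 250 g/ha as an aqueous suspension or emulsion. Plants were grown in a greenhouse for 4 weeks. Damage was scored from 0% (none) to 100% (total).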

[2] = test system: Monocotyledonous and dicotyledonous test plants; assay: Herbicidal action after emergence of the plants (post-emergence herbicidal action), Example B2; conditions: postemergent application, 125 g/ha, 2- to 3-leaf stage, evaluated after 2-3 weeks, 100%=total damage
Experimental: Monocotyledonous and dicotyledonous test plants are sown in seed trays in standard soil. When the test plants are at the 2- to 3-leaf stage, the test compounds are applied by spraying in the form of an aqueous suspension (prepared from a wettable powder (Example F3, b) according to WO 97/34485) or in the form of an emulsion (prepared from an emulsifiable concentrate (Example F1, c) according to WO 97/34485) in a concentration of 125 g/ha. The test plants are then grown on in a greenhouse under optimum conditions. After a 2- to 3-week test period, the test is evaluated (100%=total damage to plant; 0%=no damage to plant).

Nasturtium officinale = assay: Microscreen (pre-emergence), Example B3; conditions: preemergent application, 250 g/ha, evaluated 8 days later, 100%=total damage
Agrostis tenuis = assay: Microscreen (pre-emergence), Example B3; conditions: preemergent application, 250 g/ha, evaluated 8 days later, 100%=total damage
Stellaria media = assay: Microscreen (pre-emergence), Example B3; conditions: preemergent application, 250 g/ha, evaluated 8 days later, 100%=total damage
Digitaria sanguinalis = assay: Microscreen (pre-emergence), Example B3; conditions: preemergent application, 250 g/ha, evaluated 8 days later, 100%=total damage
Solanum nigrum = assay: Microscreen (pre-emergence), Example B3; conditions: preemergent application, 250 g/ha, evaluated 8 days later, 100%=total damage
Amaranthus retroflexus = assay: Microscreen (pre-emergence), Example B3; conditions: preemergent application, 250 g/ha, evaluated 8 days later, 100%=total damage
Setaria italica = assay: Microscreen (pre-emergence), Example B3; conditions: preemergent application, 250 g/ha, evaluated 8 days later, 100%=total damage

Cc1nnc2c(C(=O)C3=C(O)CCCC3=O)ccc(C(F)(F)F)n12 [Compound 3.4]
herbicidal damage, ABUTH [1]: 80%
herbicidal damage, AMARE [1]: 60%
herbicidal damage, BRAPL [1]: 80%
herbicidal damage, DIGSA [1]: 70%
herbicidal damage, ECHCG [1]: 70%
herbicidal damage, SETFA [1]: 30%
herbicidal damage, STEME [1]: 30%
herbicidal damage, VERPE [1]: 50%
herbicidal damage, ABUTH [2]: 90%
herbicidal damage, AMARE [2]: 80%
herbicidal damage, CHEAL [2]: 60%
herbicidal damage, DIGSA [2]: 80%
herbicidal damage, SETFA [2]: 80%
herbicidal damage, SINAR [2]: 90%
herbicidal damage, VERPE [2]: 100%
herbicidal damage, XANST [2]: 80%
herbicidal damage, Nasturtium (Nasturtium officinale): 80%
herbicidal damage, Agrostis (Agrostis tenuis): 100%
herbicidal damage, Stellaria (Stellaria media): 70%
herbicidal damage, Digitaria (Digitaria sanguinalis): 100%
herbicidal damage, Solanum (Solanum nigrum): 0%
herbicidal damage, Amaranthus (Amaranthus retroflexus): 80%
herbicidal damage, Setaria (Setaria italica): 60%

Cc1nnc2c(C(=O)C3=C(O)C(C)(C)C(=O)C(C)(C)C3=O)ccc(C(F)(F)F)n12 [Compound 5.3]
herbicidal damage, ABUTH [1]: 100%
herbicidal damage, AMARE [1]: 100%
herbicidal damage, BRAPL [1]: 70%
herbicidal damage, DIGSA [1]: 100%
herbicidal damage, ECHCG [1]: 100%
herbicidal damage, SETFA [1]: 60%
herbicidal damage, STEME [1]: 100%
herbicidal damage, VERPE [1]: 100%
herbicidal damage, ABUTH [2]: 80%
herbicidal damage, AMARE [2]: 70%
herbicidal damage, CHEAL [2]: 80%
herbicidal damage, DIGSA [2]: 50%
herbicidal damage, SETFA [2]: 50%
herbicidal damage, SINAR [2]: 80%
herbicidal damage, VERPE [2]: 90%
herbicidal damage, XANST [2]: 90%
herbicidal damage, Nasturtium (Nasturtium officinale): 100%
herbicidal damage, Agrostis (Agrostis tenuis): 50%
herbicidal damage, Stellaria (Stellaria media): 90%
herbicidal damage, Digitaria (Digitaria sanguinalis): 100%
herbicidal damage, Solanum (Solanum nigrum): 100%
herbicidal damage, Amaranthus (Amaranthus retroflexus): 100%
herbicidal damage, Setaria (Setaria italica): 50%

Cc1nnc2c(C(=O)C3C(=O)C4CCC(C4)C3=O)ccc(C(F)(F)F)n12 (centres unmarked) [Compound 1.4, 3-(3-Methyl-5-trifluoromethyl-[1,2,4]triazolo[4,3-a]pyridine-8-carbonyl)-bicyclo[3.2.1]octane-2,4-dione]
herbicidal damage, ABUTH [1]: 100%
herbicidal damage, AMARE [1]: 100%
herbicidal damage, BRAPL [1]: 70%
herbicidal damage, DIGSA [1]: 100%
herbicidal damage, ECHCG [1]: 90%
herbicidal damage, SETFA [1]: 90%
herbicidal damage, STEME [1]: 100%
herbicidal damage, VERPE [1]: 100%
herbicidal damage, ABUTH [2]: 70%
herbicidal damage, AMARE [2]: 70%
herbicidal damage, CHEAL [2]: 90%
herbicidal damage, DIGSA [2]: 80%
herbicidal damage, SETFA [2]: 90%
herbicidal damage, SINAR [2]: 80%
herbicidal damage, VERPE [2]: 80%
herbicidal damage, XANST [2]: 70%
herbicidal damage, Nasturtium (Nasturtium officinale): 90%
herbicidal damage, Agrostis (Agrostis tenuis): 50%
herbicidal damage, Stellaria (Stellaria media): 80%
herbicidal damage, Digitaria (Digitaria sanguinalis): 90%
herbicidal damage, Solanum (Solanum nigrum): 90%
herbicidal damage, Amaranthus (Amaranthus retroflexus): 90%
herbicidal damage, Setaria (Setaria italica): 70%

CCc1nnc2c(C(=O)C3=C(O)C4CCC(C4)C3=O)ccc(C(F)(F)F)n12 (centres unmarked) [Compound 1.5]
herbicidal damage, ABUTH [1]: 100%
herbicidal damage, AMARE [1]: 100%
herbicidal damage, BRAPL [1]: 60%
herbicidal damage, DIGSA [1]: 100%
herbicidal damage, ECHCG [1]: 60%
herbicidal damage, SETFA [1]: 80%
herbicidal damage, STEME [1]: 100%
herbicidal damage, VERPE [1]: 70%
herbicidal damage, ABUTH [2]: 90%
herbicidal damage, AMARE [2]: 70%
herbicidal damage, CHEAL [2]: 80%
herbicidal damage, DIGSA [2]: 70%
herbicidal damage, SETFA [2]: 60%
herbicidal damage, SINAR [2]: 80%
herbicidal damage, VERPE [2]: 70%
herbicidal damage, XANST [2]: 80%
herbicidal damage, Nasturtium (Nasturtium officinale): 80%
herbicidal damage, Agrostis (Agrostis tenuis): 100%
herbicidal damage, Stellaria (Stellaria media): 60%
herbicidal damage, Digitaria (Digitaria sanguinalis): 80%
herbicidal damage, Solanum (Solanum nigrum): 100%
herbicidal damage, Amaranthus (Amaranthus retroflexus): 30%
herbicidal damage, Setaria (Setaria italica): 50%

CCCC1CCC(=O)C(C(=O)c2ccc(C(F)(F)F)n3c(C)nnc23)=C1O (centres unmarked) [41.6]
herbicidal damage, ABUTH [1]: 70%
herbicidal damage, AMARE [1]: 100%
herbicidal damage, BRAPL [1]: 60%
herbicidal damage, DIGSA [1]: 90%
herbicidal damage, ECHCG [1]: 70%
herbicidal damage, SETFA [1]: 70%
herbicidal damage, STEME [1]: 50%
herbicidal damage, VERPE [1]: 50%
herbicidal damage, ABUTH [2]: 80%
herbicidal damage, AMARE [2]: 80%
herbicidal damage, CHEAL [2]: 80%
herbicidal damage, DIGSA [2]: 80%
herbicidal damage, SETFA [2]: 70%
herbicidal damage, SINAR [2]: 80%
herbicidal damage, VERPE [2]: 80%
herbicidal damage, XANST [2]: 80%
herbicidal damage, Nasturtium (Nasturtium officinale): 100%
herbicidal damage, Agrostis (Agrostis tenuis): 100%
herbicidal damage, Stellaria (Stellaria media): 80%
herbicidal damage, Digitaria (Digitaria sanguinalis): 90%
herbicidal damage, Solanum (Solanum nigrum): 90%
herbicidal damage, Amaranthus (Amaranthus retroflexus): 100%
herbicidal damage, Setaria (Setaria italica): 0%

O=C(C1=C(O)C2CCC(C2)C1=O)c1ccc(C(F)(F)F)n2c(C3CC3)nnc12 (centres unmarked) [Compound 1.8]
herbicidal damage, ABUTH [1]: 100%
herbicidal damage, AMARE [1]: 100%
herbicidal damage, BRAPL [1]: 100%
herbicidal damage, DIGSA [1]: 100%
herbicidal damage, ECHCG [1]: 40%
herbicidal damage, SETFA [1]: 60%
herbicidal damage, VERPE [1]: 70%
herbicidal damage, ABUTH [2]: 90%
herbicidal damage, AMARE [2]: 90%
herbicidal damage, CHEAL [2]: 90%
herbicidal damage, DIGSA [2]: 80%
herbicidal damage, SETFA [2]: 80%
herbicidal damage, SINAR [2]: 90%
herbicidal damage, VERPE [2]: 100%
herbicidal damage, XANST [2]: 90%
herbicidal damage, Nasturtium (Nasturtium officinale): 100%
herbicidal damage, Agrostis (Agrostis tenuis): 100%
herbicidal damage, Stellaria (Stellaria media): 80%
herbicidal damage, Digitaria (Digitaria sanguinalis): 100%
herbicidal damage, Solanum (Solanum nigrum): 90%
herbicidal damage, Amaranthus (Amaranthus retroflexus): 0%
herbicidal damage, Setaria (Setaria italica): 100%
